Assay results from patent publication US20220340665A1, “INHIBITOR AGAINST EXPRESSION OF IMMUNE CHECKPOINT MOLECULE” (RENASCIENCE INC., priority 2019, published 2022).
“Also recorded” adds a separate entry of the source.

System: mouse colorectal cancer cell line (MC38)
Experiment: MC38 tumor mass in immunodeficient and wild-type mice (Experimental Example 12)
Assay type: in vivo
Conditions: 10 mg/kg orally once daily, 14 days, listed as PAI-1 inhibitor
Experimental: To confirm this point, the following experiment was performed. Specifically, 5×10^5 cells of a mouse colorectal cancer cell line (MC38) were subcutaneously transplanted into immunodeficient mice (Rag2/IL-2R-KO) and wild-type mice (WT, for control). The immunodeficient mice lacked the RAG2 gene and the IL-2 receptor γ chain gene, and immune cells (T cells, B cells, NK cells) were not congenitally present in the body. One week later, engraftment of more than 5 mm of a tumor mass in the major axis was confirmed. Subsequently, the PAI-1 inhibitor (10 mg/kg) or physiological saline (vehicle) was orally administered to each mouse once daily for a total of 14 consecutive days.

## O=C(Nc1ccc(Cl)cc1C(=O)[O-])c1cccc(-c2cccc3cccnc23)c1.[Na+] [Example 68, 5-chloro-2-(((3-(quinolin-8-yl)phenyl)carbonyl)amino)sodium benzoate]
Immunodeficient mice (Rag2/IL-2R-KO)
  tumor regression effect: no such an effect was observed; also recorded: not observed
wild-type mice (WT), 10 mg/kg
  tumor regression effect: achieved a tumor regression effect; also recorded: observed
